What was measured:
[1] = Cytotoxicity against human NCI60 cells after 2 days by XTT assay; assay type: functional; conditions: NCI60, 48 h
L1210 = assay: Cytotoxicity against mouse L1210 cells after 24 hrs; assay type: functional, cell-based; conditions: L1210, 24 h

## COc1ccc(C(=O)/C=C/c2ccc(O)c(O)c2)c(O)c1 [CALYTHROPSIN]
[1]
  GI50: 0.66 µM
  TGI: 19.7 µM
[1]; read-out: LC50 (the source's name)
  CC50: > 50 µM
L1210
  IC50: 7 µM
